Consider 21 compounds from patent publication US20090270386A1, “THERAPEUTIC COMPOUNDS” (ALLERGAN, INC., priority 2008, published 2009).

Assay [1] relates to normotensive dogs. Description: Intraocular pressure reduction in normotensive dogs. The assay is classed as in vivo. The protocol:
U.S. Pat. No. 7,091,231 describes the methods used for these in vivo tests.
Compounds such as those described in the above are tested in vivo to measure its ability to reduce intraocular pressure. Compound 14a is tested in normotensive dogs.

Assay [2] deals with laser-induced hypertensive monkeys. In words: Intraocular pressure reduction in laser-induced hypertensive monkeys. Format: in vivo.
The test system of assay [3] is lashes and adjacent hairs of glaucoma patients. Description: Observation of eyelash/hair growth in glaucoma patients treated in one eye. Format: in vivo, humans. Conditions: glaucoma patients treated unilaterally. The source says:
In the course of treating patients having glaucoma, treatment may only be appropriate in one eye. […] The lash appearance on the lids of the treated eyes would have appeared quite attractive if it represented a bilateral phenomenon. As a result of its asymmetric nature, the long lashes on one side could be construed as disturbing from a cosmetic standpoint. A systemic examination was preformed as a result of the asymmetric phenomenon. It soon became apparent that this altered appearance was not an isolated finding. […] Definite differences could be identified to varying degrees in the lashes and adjacent hairs of all patients who were taking the drug on a unilateral basis for longer than 6 months.
The changes in the lashes were apparent on gross inspection in several patients once attention was focused on the issue. In those with light colored hair and lashes, the differences were only seen easily with the aid of the high magnification and lighting capabilities of the slit lamp biomicroscope. In the course of glaucoma follow-up examination, attention is generally immediately focused on the eye itself. As a result of the high power magnification needed only one eye is seen at a time and the eye is seen at a high enough power that the lashes are not in focus. […]

Turning to `CC(=O)OCCc1cc(Cl)cc(OCC2C(O)CC(Cl)C2CC=CCCCC(=O)OCCO)c1` (centres unmarked) [Compound 16a], the “intraocular pressure (IOP) change from baseline” value in assay [1] is “decreases from baseline”. The “IOP change from baseline” value in assay [2] was “decreases from baseline”.
`CC(=O)OCCc1cc(Cl)cc(OCC2C(O)CC(Cl)C2CC=CCCCC(=O)OCCN2CCOCC2)c1` (centres unmarked) [Compound 16b]: in assay [1], the “intraocular pressure (IOP) change from baseline” value is on record as “decreases from baseline”. For the same compound, the “IOP change from baseline” value in assay [2] was “decreases from baseline”.
For `COCc1cc(Cl)cc(OCC2C(O)CC(Cl)C2CC=CCCCC(=O)OCCO)c1` (centres unmarked) [Compound 22a], the “intraocular pressure (IOP) change from baseline” value in assay [1] is “decreases from baseline”. The “IOP change from baseline” value in assay [2] is given as “decreases from baseline”.
With `COCc1cc(Cl)cc(OCC2C(O)CC(Cl)C2CC=CCCCC(=O)OCCN2CCOCC2)c1` (centres unmarked) [Compound 22b], in assay [1], the “intraocular pressure (IOP) change from baseline” value was “decreases from baseline”. Moreover, the “IOP change from baseline” value in assay [2] is “decreases from baseline”.
In the case of `O=C(OCCO)c1ccc(CCCC2C(Cl)CC(O)C2COc2cc(Cl)cc(Cl)c2)s1` (centres unmarked) [Compound 33a], the “intraocular pressure (IOP) change from baseline” value in assay [1] is “decreases from baseline”. For the same compound, the “IOP change from baseline” value in assay [2] was “decreases from baseline”.
As to `O=C(OCCN1CCOCC1)c1ccc(CCCC2C(Cl)CC(O)C2COc2cc(Cl)cc(Cl)c2)s1` (centres unmarked) [Compound 33b], the “intraocular pressure (IOP) change from baseline” value in assay [1] is on record as “decreases from baseline”. For the same compound, the “IOP change from baseline” value in assay [2] was “decreases from baseline”.
As for `O=C(OCCO)c1ccc(CCCC2C(Cl)CC(O)C2COc2cc(Cl)cc(CO)c2)s1` (centres unmarked) [Compound 34a], the “intraocular pressure (IOP) change from baseline” value in assay [1] is “decreases from baseline”. Further, in assay [2], the “IOP change from baseline” value was “decreases from baseline”.
Regarding `O=C(OCCN1CCOCC1)c1ccc(CCCC2C(Cl)CC(O)C2COc2cc(Cl)cc(CO)c2)s1` (centres unmarked) [Compound 34b], the “intraocular pressure (IOP) change from baseline” value in assay [1] is reported as “decreases from baseline”. For the same compound, in assay [2], the “IOP change from baseline” value is “decreases from baseline”.
For the compound `Cc1cc(C)cc(OCC2C(O)CC(Cl)C2CCCc2ccc(C(=O)OCCO)s2)c1` (centres unmarked) [Compound 35a], the “intraocular pressure (IOP) change from baseline” value in assay [1] was “decreases from baseline”. Moreover, in assay [2], the “IOP change from baseline” value was “decreases from baseline”.
Consider `Cc1cc(C)cc(OCC2C(O)CC(Cl)C2CCCc2ccc(C(=O)OCCN3CCOCC3)s2)c1` (centres unmarked) [Compound 35b], for which the “intraocular pressure (IOP) change from baseline” value in assay [1] is on record as “decreases from baseline”. For the same compound, in assay [2], the “IOP change from baseline” value is “decreases from baseline”.
With `O=C(OCCO)c1ccc(CCCC2C(=O)CCC2COc2cc(Cl)cc(CO)c2)s1` (centres unmarked) [Compound 46a], the “intraocular pressure (IOP) change from baseline” value in assay [1] is recorded as “decreases from baseline”. The “IOP change from baseline” value in assay [2] is given as “decreases from baseline”.
`O=C(OCCN1CCOCC1)c1ccc(CCCC2C(=O)CCC2COc2cc(Cl)cc(CO)c2)s1` (centres unmarked) [Compound 46b]: the “intraocular pressure (IOP) change from baseline” value in assay [1] is given as “decreases from baseline”. In assay [2], the “IOP change from baseline” value is listed as “decreases from baseline”.
Consider `O=C(OCCO)c1ccc(CCCC2C(Cl)CCC2COc2cc(Cl)cc(CO)c2)s1` (centres unmarked) [Compound 51a], for which the “intraocular pressure (IOP) change from baseline” value in assay [1] is given as “decreases from baseline”. Besides, the “IOP change from baseline” value in assay [2] is “decreases from baseline”.
As to `O=C(OCCN1CCOCC1)c1ccc(CCCC2C(Cl)CCC2COc2cc(Cl)cc(CO)c2)s1` (centres unmarked) [Compound 51b], in assay [1], the “intraocular pressure (IOP) change from baseline” value is on record as “decreases from baseline”. Also, the “IOP change from baseline” value in assay [2] is recorded as “decreases from baseline”.
Consider `N#CC1CC(O)C(COc2cc(Cl)cc(Cl)c2)C1CCCc1ccc(C(=O)OCCO)s1` (centres unmarked) [Compound 58a], for which the “intraocular pressure (IOP) change from baseline” value in assay [1] is reported as “decreases from baseline”. Also, the “IOP change from baseline” value in assay [2] is listed as “decreases from baseline”.
As for `N#CC1CC(O)C(COc2cc(Cl)cc(Cl)c2)C1CCCc1ccc(C(=O)OCCN2CCOCC2)s1` (centres unmarked) [Compound 58b], the “intraocular pressure (IOP) change from baseline” value in assay [1] is “decreases from baseline”. For the same compound, the “IOP change from baseline” value in assay [2] is given as “decreases from baseline”.
On to `O=C(OCCO)c1ccc(CCCC2=CCC(O)C2COc2cc(Cl)cc(Cl)c2)s1` (centres unmarked) [Compound 68a], for which the “intraocular pressure (IOP) change from baseline” value in assay [1] is “decreases from baseline”. Moreover, the “IOP change from baseline” value in assay [2] was “decreases from baseline”.
As for `O=C(OCCN1CCOCC1)c1ccc(CCCC2=CCC(O)C2COc2cc(Cl)cc(Cl)c2)s1` (centres unmarked) [Compound 68b], the “intraocular pressure (IOP) change from baseline” value in assay [1] is given as “decreases from baseline”. The “IOP change from baseline” value in assay [2] is given as “decreases from baseline”.
For the compound `O=C(OCCO)c1ccc(CCCC2C(F)CC(O)C2COc2cc(Cl)cc(Cl)c2)s1` (centres unmarked) [Compound 70a], in assay [1], the “intraocular pressure (IOP) change from baseline” value was “decreases from baseline”. Besides, in assay [2], the “IOP change from baseline” value is recorded as “decreases from baseline”.
As for `O=C(OCCN1CCOCC1)c1ccc(CCCC2C(F)CC(O)C2COc2cc(Cl)cc(Cl)c2)s1` (centres unmarked) [Compound 70b], the “intraocular pressure (IOP) change from baseline” value in assay [1] is “decreases from baseline”. Also, the “IOP change from baseline” value in assay [2] was “decreases from baseline”.
For `CCNC(=O)CCC/C=C\C[C@@H]1[C@@H](/C=C/[C@@H](O)CCc2ccccc2)[C@H](O)C[C@@H]1O` [bimatoprost], in assay [3], the “lash appearance in treated eye versus non-treated eye” value is “longer, thicker, and fuller in the treated eye”.
